In patent US20120028917A1, “Use Of N-(4-((3-(2-Amino-4-Pyrimidinyl)-2-Pyridinyl)Oxy)Phenyl)-4-(4-Methyl-2-Thienyl)-1-Phthalazinamine In The Treatment Of Antimitotic Agent Resistant Cancer” (Amgen Inc., priority 2009, published 2012):
Like-named read-outs stand apart in the source and are kept apart here. Marks after values point to notes of the source that are not given here.

Columns and labels:
[1] = test system: NCI-H460-Taxol-r xenograft; assay: Xenograft tumor growth inhibition (Example 3); type: in vivo, athymic nude mice; settings: Lung, oral BID, best of intermittent or continuous dose schedule
Protocol: (§1) To investigate whether AMG 900-induced suppression of aurora kinase activity inhibits cell proliferation, the antiproliferative efficacy of AMG 900 was evaluated in-vivo in multiple human cancer xenograft models, including breast, colon, leukemia, lung, pancreatic, and uterine cancer models, grown in athymic nude mice. Mice were administered AMG 900 orally at 3.75, 7.5, or 15 mg/kg BID for 2 consecutive days per week or 3 mg/kg BID everyday for the duration of the study beginning when tumors were established. The reagents, solutions, equipment, formulation of AMG 900, tumor volume measurements and calculations were generally as described in Example 4 below.
(§2) The effect of AMG 900 was tested on the multidrug resistant cell line MES-SA Dx5 grown in vivo as a tumor xenograft. Mice were administered AMG 900 orally at 15 mg/kg BID for 2 consecutive days per week or 3.0 mg/kg BID everyday for the duration of the study. Dosing was initiated when tumors were established (10 days after tumor implantation).

[2] = test system: HCT15 xenograft; assay: Xenograft tumor growth inhibition (Example 3); type: in vivo, athymic nude mice; settings: HCT15, Colon; oral BID, best of intermittent or continuous dose schedule
Protocol: as §1, §2

[3] = test system: U226-B1; assay: ≧4N DNA content assay (flow cytometry); type: cell-based, human; settings: Homo sapiens; U226-B1, BCRP −; 24 hours
Protocol: (§3) Tumor cells were treated with AMG 900, AZD1152, MK-0457, or PHA-739358 (range concentration varied based on potency) for 24 hours and processed for cell-cycle analysis (DNA staining only) as previously described (1). Cells were analyzed on a LSRII flow cytometer using BD FACS Diva software. The concentration-response curves and corresponding EC50 values were calculated using the percentage of cells with ≧4N DNA content versus the DMSO control.

[4] = test system: RPMI8226; assay: ≧4N DNA content assay (flow cytometry); type: cell-based, human; settings: Homo sapiens
Protocol: as §3

[5] = test system: HCT116 xenograft; assay: Xenograft tumor growth inhibition (Example 7); type: in vivo, mice; settings: HCT116, Colon; oral 15 mg/kg b.i.d. 2 consecutive days per week or 3 mg/kg b.i.d. every day, 3 weeks
Protocol: Mice were injected subcutaneously with 2×10^6 human HCT 116 colon tumor cells. When tumors were established (approximately 200 mm^3), mice were randomized into experimental treatment groups (n=10) and treated orally with AMG 900 at 1.5, 2.25 or 3 mg/kg everyday or, 3.75, 7.5 or 15 mg/kg intermittently for the duration of the experiment. Mice were provided nutritional supplements on a daily basis. Tumor volumes and body weights were recorded twice per week using caliper and analytical digital scale, respectfully. Tumor data were represented by mean tumor volume +/−SEM. Statistical significance for tumor growth inhibition was determined by repeated measurements ANOVA (RMANOVA) followed by Scheffe post-hoc analysis.
The in-vivo effect of AMG 900 on tumor growth was further evaluated in a panel of human xenografts from five different tumor types (breast, colon, lung, pancreatic, and uterine), including three MDR xenograft models. Mice bearing established tumors were orally administered AMG 900 at 15 mg/kg b.i.d. for 2 consecutive days per week for 3 weeks or at 3 mg/kg b.i.d. every day for 3 weeks. The maximum percentage of tumor growth inhibition (TGI) is reported, in Table 7 below, for each xenograft model. The percentage of TGI was calculated as the difference between the change in vehicle-treated control and AMG 900-treated tumor volumes during the study period.

[6] = test system: MDA-MB-231; assay: Cell cycle DNA content assay (flow cytometry); type: cell-based; settings: Homo sapiens, 24 h; MDA-MB-231, Breast, Parent line; read-out: EC50 @ 24 hours, ≧4N DNA content
Protocol: (§4) MDA-MB-231(F11)-luc parent and taxol-resistant cells were seeded at a density of 250,000 cells/well in a 12-well plate in 1 mL of in the appropriate media, in duplicates. The next day cells were treated with AMG 900 or taxol over a 10-point concentration range with a final DMSO concentration of 0.1% in taxol-free media. After 24 hours, cells were harvested with 1× trypsin-EDTA and transferred to PCR tubes. Cells were centrifuged at 2000 rpm for 4 minutes and the supernatant was aspirated. Cells were fixed in 200 μL of ice cold 90% methanol and stored at −20° C. for at least 24 hours. Fixed cells were centrifuged at 2000 rpm for 4 minutes to remove 90% methanol. Cells were washed with wash buffer and stained with 200 μL of propidium iodide (PI) for 30 minutes at 4° C. in the dark. An additional 400 μL of PI was added before data acquisition. Data was acquired and analyzed by flow cytometry (LSRII). A threshold gate was applied according to +4N (same as ≧4N) DNA content based on DMSO control and low/high drug-treated groups. The data was represented as percentage of control for +4N DNA content positive populations. The +4N DNA content cellular EC50 values were assigned using 4-parameter equation. […] Flow cytometric-based cell cycle analysis was performed to measure the percentage of ≧4N DNA content or SubG1 DNA content positive cells. The dose-response curves for AMG 900 represent the drug concentration plotted against the percentage of ≧4N DNA content positive cells. The dose-response curves for taxol represent the drug concentration plotted against the percentage of SubG1 DNA content positive cells. The EC50 values were calculated by 4-parameter fit model.

[7] = test system: MDA-MB-231-Taxol-r; assay: Cell cycle DNA content assay (flow cytometry); type: cell-based; settings: Homo sapiens, 24 h, Breast, Paclitaxel-selected, read-out: EC50 @ 24 hours, ≧4N DNA content
Protocol: as §4

[8] = test system: HCT15; assay: Cellular EC50, additional cell lines (Table 6-B); type: cell-based, human; settings: Homo sapiens, HCT-15, Colon, P-gp+
Protocol: (§5) All high-content cell assays were performed on an ArrayScan VTi HCS Reader (Cellomics). Tumor cell lines were treated with AMG 900, AZD1152, MK-0457, or PHA-739358 (concentration range varied based on potency). The cells were prepared for intracellular staining with an anti-p-histone H3 Ser^10 antibody as previously described (1). Detection was performed with an anti-rabbit IgG-alexa-568 antibody and DAPI. The cellular levels of p-histone H3 were analyzed using Target Activation V2 algorithm (Cellomics) to determine the percentage of positive cells. For the imaging assays, the concentration-response curves and corresponding IC50 and EC50 values were calculated using the percentage of cells affected versus the DMSO control.
as §3

[9] = test system: MCF-7; assay: Cellular EC50, additional cell lines (Table 6-B); type: cell-based, human; settings: Homo sapiens, MCF7; MCF-7, Breast
Protocol: as §5, §3

- EC50 [3]: 2 nM
- EC50 ([4]; RPMI-8226, RPMI8226, BCRP +, 24 hours, read-out: ≧4N DNA Content assay, EC50 value): 3 nM
- EC50 ([4]; RPMI-8226**, Multiple Myeloma, P-gp− and/or BCRP+, read-out: Cellular EC50): 3 nM
- EC50 [6]: 1 nM
- EC50 [7]: 1 nM
- EC50 [8]: 2 nM
- EC50 [9]: 1 nM
Compound: Cc1csc(-c2nnc(Nc3ccc(Oc4ncccc4-c4ccnc(N)n4)cc3)c3ccccc23)c1 [AMG 900, N-(4-((3-(2-amino-4-pyrimidinyl)-2-pyridinyl)oxy)phenyl)-4-(4-methyl-2-thienyl)-1-phthalazinamine]
- % TGI (tumor growth inhibition) [1]: 66%
- % TGI (tumor growth inhibition) [2]: 51%
- Maximum TGI (%) [5]: 85** %
